Columns and labels:
human M4 receptor = molecular target: T1, human M4 receptor (Homo sapiens, UniProt P08173); test: Radioligand ([3H]N-methylscopolamine) binding assay, membranes from CHO cells expressing human M4 receptor; conditions: Ki against human M4 receptor; membranes from CHO cells; tritiated N-methylscopolamine 1.5 nM; read-out: K
T1 construct: expressed in transfected cells; host or cells: CHO cells
T1 sequence (P08173 1-479): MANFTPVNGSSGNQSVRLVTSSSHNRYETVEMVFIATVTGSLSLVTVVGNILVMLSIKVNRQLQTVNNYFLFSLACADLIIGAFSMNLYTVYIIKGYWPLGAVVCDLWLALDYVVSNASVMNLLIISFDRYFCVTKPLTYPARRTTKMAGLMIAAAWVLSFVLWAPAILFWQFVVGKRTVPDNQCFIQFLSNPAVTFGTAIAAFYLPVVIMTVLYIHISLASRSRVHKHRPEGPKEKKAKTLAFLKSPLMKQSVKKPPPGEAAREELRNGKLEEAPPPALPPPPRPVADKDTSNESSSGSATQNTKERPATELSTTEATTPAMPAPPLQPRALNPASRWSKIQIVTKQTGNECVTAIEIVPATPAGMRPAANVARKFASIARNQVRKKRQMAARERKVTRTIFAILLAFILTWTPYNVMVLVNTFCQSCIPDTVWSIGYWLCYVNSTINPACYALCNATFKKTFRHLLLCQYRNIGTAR
How it was run: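 Ki values derive from displacement of tritiated N-methylscopolamine (1.5 nM) from human M4 receptor in CHO membranes. Membranes, radioligand and twelve-point compound series were incubated together at 37 °C for 90 minutes in pH 7.4 HEPES/NaCl/MgCl2/EDTA buffer. Rapid vacuum filtration over polyethylenimine-pretreated filters was followed by radioactivity counting.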

[1] = molecular target: T2, Human muscarinic 4 receptor (CHRM4) (Homo sapiens, UniProt P08173); test: Fluorescence-based functional calcium assay, antagonism of acetylcholine response in CHO-K1 cells with Gα16; format: cell-based; conditions: inhibition of the acetylcholine response
T2 construct: host or cells: CHO-K1
T2 sequence (P08173 1-479): T1 sequence (P08173 1-479)
Experimental: Functional antagonism of acetylcholine responses was evaluated using a fluorescence-based functional calcium assay. Acetylcholine binding to the muscarinic receptors activates G-proteins. Human muscarinic 4 receptor (CHRM4) was stably expressed in CHO-K1 cells and a promiscuous Gα16 construct is co-transfected. This cell line was commercially available through PerkinElmer (product number ES-213-A). Following ligand binding, activation of the Ga16 subunit induces the release of calcium from the endoplasmic reticulum. Prior to ligand screening, the receptor-expressing cells were loaded with a fluorescent calcium indicator, FLIPR Calcium 6 (Molecular Devices). Antagonist activity of the compounds was determined as the EC50 for inhibition of the acetylcholine response. The assay buffer used was a 1:1 solution of buffer (1× Hank's balanced salt solution plus 20 mM HEPES buffer, pH 7.4) and cell medium (Ham's F-12, 10% FBS, 0.4 mg/mL Geneticin, 0.25 mg/mL Zeocin). The day before the assay, 4×10^3 cells per well were seeded into an assay plate in 25 μL of medium and allowed to incubate overnight at 37° C. and 5% CO2. The following day, 25 μL of Calcium 6 dye was added to each well and incubated for two additional hours at 37° C. and 5% CO2. The test compound (a dose-response of eleven concentrations ranging from […]) was added to the cells to a final DMSO concentration of 0.56% v/v. One hour later, acetylcholine to a final concentration of 100 nM was added by the instrument and calcium flux-dependent fluorescence measured in real time. The concentration of acetylcholine used was that which stimulates 80% of the maximal response.

Compound | Ki (human M4 receptor) [nM] | IC50 [1] [nM]
C[C@@H]1CN(c2ncc(C(F)(F)F)cn2)C[C@H](C)N1C(=O)NC1CC2(C1)CN(Cc1ccccc1)C2 [Compound 96, (2R,6S)—N-{2-Benzyl-2-azaspiro[3.3]heptan-6-yl}-2,6-dimethyl-4-[5-(trifluoromethyl)pyrimidin-2-yl]piperazine-1-carboxamide] | < 10 | < 10
C[C@@H]1CN(c2cnc(C(F)(F)F)cn2)[C@@H](C)CN1C(=O)OC1CC2(C1)CN(Cc1ccccc1)C2 [Compound 106, 2-benzyl-2-azaspiro[3.3]heptan-6-yl (2R,5S)-2,5-dimethyl-4-[5-(trifluoromethyl)pyrazin-2-yl]piperazine-1-carboxylate] | 10 to 100 | < 10
C[C@@H]1CN(c2cnc(C(F)(F)F)cn2)C[C@H](C)N1C(=O)OC1CC2(C1)CN(Cc1ccccc1)C2 [Compound 141, 2-benzyl-2-azaspiro[3.3]heptan-6-yl (2R,6S)-2,6-dimethyl-4-[5-(trifluoromethyl)pyrazin-2-yl]piperazine-1-carboxylate] | 10 to 100 | < 10
C[C@@H]1CN(c2ncc(C(F)(F)F)cn2)C[C@H](C)N1C(=O)OC1CC2(C1)CN(Cc1ccccc1)C2 [Compound 147, 2-Benzyl-2-azaspiro[3.3]heptan-6-yl (2R,6S)-2,6-dimethyl-4-[5-(trifluoromethyl)pyrimidin-2-yl]piperazine-1-carboxylate] | < 10 | < 10
C[C@@H]1CN(c2ncc(C3CC3)cn2)C[C@H](C)N1C(=O)OC1CC2(C1)CN(Cc1ccccc1)C2 [Compound 506, 2-benzyl-2-azaspiro[3.3]heptan-6-yl (2R,6S)-4-(5-cyclopropylpyrimidin-2-yl)-2,6-dimethylpiperazine-1-carboxylate] | < 10 | –
C#Cc1cnc(N2C[C@@H](C)N(C(=O)OC3CC4(C3)CN(Cc3ccccc3)C4)[C@@H](C)C2)nc1 [Compound 508, 2-benzyl-2-azaspiro[3.3]heptan-6-yl (2R,6S)-4-(5-ethynylpyrimidin-2-yl)-2,6-dimethylpiperazine-1-carboxylate] | 10 to 100 | –
C[C@@H]1CN(c2ccc(C(F)(F)F)cc2)C[C@H](C)N1C(=O)OC1CC2(C1)CN(Cc1ccccc1)C2 [Compound 514, 2-benzyl-2-azaspiro[3.3]heptan-6-yl (2R,6S)-2,6-dimethyl-4-[4-(trifluoromethyl)phenyl]pipera-zine-1-carboxylate] | < 10 | –
COc1ccc(N2C[C@@H](C)N(C(=O)OC3CC4(C3)CN(Cc3ccccc3)C4)[C@@H](C)C2)cc1 [Compound 524, 2-benzyl-2-azaspiro[3.3]heptan-6-yl (2R,6S)-4-(4-methoxyphenyl)-2,6-dimethylpiperazine-1-carboxylate] | 100 to 1000 | –
Cc1cc(N2C[C@@H](C)N(C(=O)OC3CC4(C3)CN(Cc3ccccc3)C4)[C@@H](C)C2)ccc1F [Compound 525, 2-benzyl-2-azaspiro[3.3]heptan-6-yl (2R,6S)-4-(4-fluoro-3-methylphenyl)-2,6-dimethylpiperazine-1-carboxylate] | 10 to 100 | –
COc1cc(N2C[C@@H](C)N(C(=O)OC3CC4(C3)CN(Cc3ccccc3)C4)[C@@H](C)C2)ccc1C#N [Compound 526, 2-benzyl-2-azaspiro[3.3]heptan-6-yl (2R,6S)-4-(4-cyano-3-methoxyphenyl)-2,6-dimethylpiperazine-1-carboxylate] | 100 to 1000 | –
C[C@@H]1CN(c2ccc(C(F)(F)F)cc2)[C@@H](C)CN1C(=O)OC1CC2(C1)CN(Cc1ccccc1)C2 [Compound 527, 2-benzyl-2-azaspiro[3.3]heptan-6-yl (2R,5S)-2,5-dimethyl-4-[4-(trifluoromethyl)phenyl]pipera-zine-1-carboxylate] | < 10 | –
C[C@@H]1CN(c2ccc(C(F)(F)F)cc2)CCN1C(=O)OC1CC2(C1)CN(Cc1ccccc1)C2 [Compound 528, 2-benzyl-2-azaspiro[3.3]heptan-6-yl (2R)-2-methyl-4-[4-(trifluoromethyl)phenyl]pipera-zine-1-carboxylate] | 10 to 100 | –
C[C@@H]1CN(c2ncc(OCC3CCC3)cn2)C[C@H](C)N1C(=O)OC1CC2(C1)CN(Cc1ccccc1)C2 [Compound 530, 2-benzyl-2-azaspiro[3.3]heptan-6-yl (2R,6S)-4-[5-(cyclobutylmethoxy)pyrimidin-2-yl]-2,6-dimethylpiperazine-1-carboxylate] | < 10 | –

Reference: patent US20230129359A1, “MUSCARINIC RECEPTOR 4 ANTAGONISTS AND METHODS OF USE” (Neurocrine Biosciences, Inc., priority 2020, published 2023)
